Assay results published in patent US10327448B2, “Bacterium of Bacillus genus and uses thereof” (priority 2014, dated 2019).
Positions of bridges follow the written chain, without caps; N, C: chain ends. Non-standard residues stand in square brackets, D forms with d. Residues, ends and D or L forms follow the SMILES beside them. *: point of attachment. Ileψ(thiazoline)Cys = CC[C@H](C)[C@H](N)C1=N[C@H](C(=O)*)CS1; dOrn = NCCC[C@@H](N)C(=O)O

Tested on: Bacillus subtilis ssp. shriramensis (MTCC-5674)
Test: Antibiotic sensitivity test (antibiotic discs on T3 agar); as to Result: key: RES - Resistant; INT - Intermediate; SEN - Sensitive
Type: cell-based
Conditions: antibiotic disc on T3 agar, 30° C. for 24 hours; for Result: judged against Standards
Method: Different antibiotic discs were placed on the surface of the T3 agar plates labelled with the respective antibiotic. The plates were incubated at 30° C. for 24 hours.

Row | Molecule | Zone [mm] | antibiotic sensitivity of the bacterium, in words | Result
1 | NCC[C@H](O)C(=O)N[C@@H]1C[C@H](N)[C@@H](O[C@H]2O[C@H](CN)[C@@H](O)[C@H](O)[C@H]2O)[C@H](O)[C@H]1O[C@H]1O[C@H](CO)[C@@H](O)[C@H](N)[C@H]1O [Amikacin] | 15 | intermediate resistance | INT
2 | CC1(C)S[C@@H]2[C@H](NC(=O)[C@H](N)c3ccc(O)cc3)C(=O)N2[C@H]1C(=O)O [Amoxicillin] | 0 | resistant | RES
3 | CC1(C)S[C@@H]2[C@H](NC(=O)[C@H](N)c3ccccc3)C(=O)N2[C@H]1C(=O)O [Ampicillin] | 0 | resistant | RES
4 | CC[C@H]1OC(=O)[C@H](C)[C@@H](O[C@H]2C[C@@](C)(OC)[C@@H](O)[C@H](C)O2)[C@H](C)[C@@H](O[C@@H]2O[C@H](C)C[C@H](N(C)C)[C@H]2O)[C@](C)(O)C[C@@H](C)CN(C)[C@H](C)[C@@H](O)[C@]1(C)O [Azithromycin] | 10 | resistant | RES
5 | CC[C@H](C)[C@H](N)C1=N[C@H](C(=O)N[C@@H](CC(C)C)C(=O)N[C@H](CCC(=O)O)C(=O)N[C@H](C(=O)N[C@H]2CCCCNC(=O)[C@H](CC(N)=O)NC(=O)[C@@H](CC(=O)O)NC(=O)[C@H](Cc3cnc[nH]3)NC(=O)[C@@H](Cc3ccccc3)NC(=O)[C@H]([C@@H](C)CC)NC(=O)[C@@H](CCCN)NC2=O)[C@@H](C)CC)CS1 [Bacitracin] ({Ileψ(thiazoline)Cys}-L[dE]IK[dOrn]I[dF]H[dD]N; lactam 4-C) | 21 | sensitive | SEN
6 | CC1(C)S[C@@H]2[C@H](NC(=O)C(C(=O)O)c3ccccc3)C(=O)N2[C@H]1C(=O)O (stereo partly drawn) [Carbenicillin] | 15 | resistant | RES
7 | CO/N=C(\C(=O)N[C@@H]1C(=O)N2C(C(=O)O)=C(CSc3nc(=O)c(=O)[nH]n3C)CS[C@H]12)c1csc(N)n1 [Ceftriaxone] | 28 | sensitive | SEN
8 | CC(=O)OCC1=C(C(=O)O)N2C(=O)[C@@H](NC(=O)Cc3cccs3)[C@H]2SC1 [Cephalothin] | 40 | sensitive | SEN
9 | O=C(N[C@H](CO)[C@H](O)c1ccc([N+](=O)[O-])cc1)C(Cl)Cl [Chloramphenicol] | 25 | sensitive | SEN
10 | CCC[C@@H]1C[C@@H](C(=O)N[C@@H]([C@H]2O[C@H](SC)[C@H](O)[C@@H](O)[C@H]2O)[C@H](C)Cl)N(C)C1 [Clindamycin] | 10 |  | 
11 | CCN1CCN(c2cc3c(cc2F)c(=O)c(C(=O)O)cn3C2CC2)CC1 [Enrofloxacin] | 41 | resistant | RES
12 | CC[C@H]1OC(=O)[C@H](C)[C@@H](O[C@H]2C[C@@](C)(OC)[C@@H](O)[C@H](C)O2)[C@H](C)[C@@H](O[C@@H]2O[C@H](C)C[C@H](N(C)C)[C@H]2O)[C@](C)(O)C[C@@H](C)C(=O)[C@H](C)[C@@H](O)[C@]1(C)O [Erythromycin] | 16 | intermediate resistance | INT
13 | NC[C@H]1O[C@H](O[C@H]2[C@H](O)[C@@H](O[C@H]3O[C@H](CO)[C@@H](O)[C@H](N)[C@H]3O)[C@H](N)C[C@@H]2N)[C@H](O)[C@@H](O)[C@@H]1O [Kanamycin] | 13 |  | RES
14 | CCC[C@@H]1C[C@@H](C(=O)N[C@@H]([C@H]2O[C@H](SC)[C@H](O)[C@@H](O)[C@H]2O)[C@@H](C)O)N(C)C1 [Lincomycin] | 12 | resistant | RES
15 | CO[C@@H]1[C@@H](OC(N)=O)[C@@H](O)[C@H](Oc2ccc3c(O)c(NC(=O)c4ccc(O)c(CC=C(C)C)c4)c(=O)oc3c2C)OC1(C)C [Novobiocin] | 24 | sensitive | SEN
16 | Cc1onc(-c2ccccc2)c1C(=O)N[C@@H]1C(=O)N2[C@@H]1SC(C)(C)[C@@H]2C(=O)O [Oxacillin] | 11 | intermediate resistance | INT
17 | [H]/N=C(/N)N[C@H]1[C@H](O)[C@@H](O)[C@H](O[C@@H]2O[C@@H](C)[C@](O)(C=O)[C@H]2O[C@@H]2O[C@@H](CO)[C@H](O)[C@@H](O)[C@@H]2NC)[C@@H](N/C(N)=N\[H])[C@@H]1O [Streptomycin] | 12 | intermediate resistance | INT
18 | Cc1noc(NS(=O)(=O)c2ccc(N)cc2)c1C [Sulfisoxazole] | 33 | sensitive | SEN
19 | NC[C@H]1O[C@H](O[C@H]2[C@H](O)[C@@H](O[C@H]3O[C@H](CO)[C@@H](O)[C@H](N)[C@H]3O)[C@H](N)C[C@@H]2N)[C@H](N)C[C@@H]1O [Tobramycin] | 15 | sensitive | SEN
20 | CN[C@H](CC(C)C)C(=O)N[C@H]1C(=O)N[C@@H](CC(N)=O)C(=O)N[C@H]2C(=O)N[C@H]3C(=O)N[C@H](C(=O)N[C@H](C(=O)O)c4cc(O)cc(O)c4-c4cc3ccc4O)[C@H](O)c3ccc(c(Cl)c3)Oc3cc2cc(c3O[C@@H]2O[C@H](CO)[C@@H](O)[C@H](O)[C@H]2O[C@H]2C[C@](C)(N)[C@H](O)[C@H](C)O2)Oc2ccc(cc2Cl)[C@H]1O [Vancomycin] | 20 | sensitive | SEN
21 | Gentamicin | 20 | sensitive | SEN
22 | Neomycin | 12 | resistant | RES
